In ChEMBL document CHEMBL5236571, “Dynamic Covalent Template-Guided Screen for Nucleic Acid-Targeting Agents” (J Med Chem, 2022):
Active and inactive are the calls of the source. The calls are words filed in the database; no cut-off is given here.

Key:
[1] = tested on: r(CUG) repeat expansion; test: Inhibition of d(CTG.CAG)90 transcription (unknown origin) assessed as inhibition of r(CUG)90 formation at 10 uM incubated for 3.5 hrs measured after 1.5 hrs in presence of T7 RNA polymerase by SDS-PAGE analysis relative to control; type: nucleic-acid assay; conditions: Homo sapiens, time 5.0 hrs
[2] = molecular target: r(CUG) repeat expansion; test: Inhibition of d(CTG.CAG)90 transcription (unknown origin) assessed as inhibition of r(CUG)90 formation incubated for 3.5 hrs measured after 1.5 hrs in presence of T7 RNA polymerase by SDS-PAGE analysis; type: nucleic-acid assay, Homo sapiens
[3] = tested on: r(CUG) repeat expansion; test: Inhibition of d(CTG.CAG)90 transcription (unknown origin) assessed as inhibition of r(CUG)90 formation at 60 uM incubated for 3.5 hrs measured after 1.5 hrs in presence of T7 RNA polymerase by SDS-PAGE analysis; type: nucleic-acid assay; conditions: Homo sapiens, time 5.0 hrs

Structure (SMILES)	inhibition [1]	IC50 [2]	inhibition [3]
N=C(NCCCCNc1nc(N)nc(NCc2ccc(/C=N/CCCCn3cnc4c(N)ncnc43)cc2)n1)c1ccc(C(=N)NCCCCNc2nc(N)nc(NCc3ccc(/C=N/c4ccc(CNC(=N)c5ccc(C(=N)NCc6ccc(N)cc6)cc5)cc4)cc3)n2)cc1	13.9%	34.2 µM	
N=C(NCCCCNc1nc(N)nc(NCc2ccc(/C=N/c3ccc(CNc4nc(N)nc(NCc5ccc(N)cc5)n4)cc3)cc2)n1)c1ccc(C(=N)NCCCCNc2nc(N)nc(NCc3ccc(CO)cc3)n2)cc1	34.8%	25.9 µM	Active
N=C(NCc1ccc(N)cc1)c1ccc(C(=N)NCc2ccc(/N=C/c3ccc(/C=N/CCCCNc4nc(N)nc(NCCCCN)n4)cc3)cc2)cc1	21.3%	> 60 µM	
COc1ccc2nc3cc(Cl)ccc3c(NC/C=N/CCCCNc3nc(N)nc(NCCCC/N=C/c4ccc(CNc5nc(N)nc(N)n5)cc4)n3)c2c1	19.9%	44 µM	
COc1ccc2nc3cc(Cl)ccc3c(NC/C=N/CCCCNC(=O)c3cccc4c(NCCCCNc5nc(N)nc(N)n5)c5ccccc5nc34)c2c1	23.2%	36.2 µM	
